Where two headings read alike, the source gives them in different places.
Legend:
HIV-1 isolates, WT = experiment: In vitro drug sensitivity of HIV-1 laboratory isolates, WT; type: cell-based
Experimental: (§1) In Vitro Drug Sensitivity of HIV-1 Laboratory Isolates to PIs
(§2) The sensitivities of HIV-1 isolates against compounds of the invention were determined as previously described with minor modifications (Shiraska et al., Proc. Natl. Acad. Sci. USA, 92, 2398-2402 (1995)).

HIV-1 isolates, Mutant 9 = experiment: In vitro drug sensitivity of HIV-1 laboratory isolates, Mutant 9; type: cell-based
Experimental: as §1, §2

wild type HIV-1 protease = target: T1, wild type HIV-1 protease (Human immunodeficiency virus type 1 group M subtype B, UniProt P04585); experiment: Ki against wild type (WT) HIV-1 protease; type: biochemical
T1 construct: over 45 of the 99 amino acids of the HIV protease monomer

HIV-1 isolates, Mutant 8 = experiment: In vitro drug sensitivity of HIV-1 laboratory isolates, Mutant 8; type: cell-based
Experimental: as §1, §2

HIV-1 protease Mutant 9 = HIV-1 protease Mutant 9 (Human immunodeficiency virus type 1, UniProt P04585); experiment: Ki against HIV-1 protease Mutant 9; type: biochemical
HIV-1 protease Mutant 8 = HIV-1 protease Mutant 8 (Human immunodeficiency virus type 1, UniProt P04585); experiment: Ki against HIV-1 protease Mutant 8; type: biochemical
[1] = Human immunodeficiency virus 1, read-out: IC50 Mutant 9
[2] = Human immunodeficiency virus 1, read-out: IC50 Mutant 8
[3] = Mutant 9, read-out: IC50 Mutant 9
[4] = Mutant 8, read-out: IC50 Mutant 8
[5] = Human immunodeficiency virus 1, HIV-1 isolate WT

Row | SMILES | IC50 (HIV-1 isolates, WT; Human immunodeficiency virus 1) [nM] | IC50 (HIV-1 isolates, Mutant 9; [1]) [nM] | Ki (wild type HIV-1 protease; WT) [nM] | IC50 (HIV-1 isolates, Mutant 8; [2]) [nM] | Ki (HIV-1 protease Mutant 9; Mutant 9) [nM] | Ki (HIV-1 protease Mutant 8; Mutant 8) [nM] | IC50 (HIV-1 isolates, WT; WT) [nM] | IC50 (HIV-1 isolates, Mutant 9; [3]) [nM] | IC50 (HIV-1 isolates, Mutant 8; [4]) [nM] | IC50 (HIV-1 isolates, WT; [5]) [nM] | Ki (wild type HIV-1 protease; wild type HIV-1 protease) [nM] | Ki (HIV-1 protease Mutant 9; HIV-1 protease Mutant 9) [nM] | Ki (HIV-1 protease Mutant 8; HIV-1 protease Mutant 8) [nM]
1 | CC(C)CN(CC(O)C(Cc1ccccc1)NC(=O)OC1COC2OCCC12)S(=O)(=O)c1ccc2[nH]nc(NCC(C)(C)C)c2c1 (stereo not drawn) [Compound 309] | 4 | 250 | 0.13 | 25 | 3.5 | < 0.3 | – | – | – | – | – | – | –
2 | CCOC(=O)NCc1coc2ccc(S(=O)(=O)N(CC(C)C)C[C@@H](O)[C@H](Cc3ccccc3)NC(=O)OC3COC4OCCC34)cc12 (stereo partly drawn) [Compound 112] | – | – | < 0.1 | – | < 0.1 | < 0.3 | 1.8 | 29 | 11 | – | – | – | –
3 | CC(C)CN(CC(O)C(Cc1ccccc1)NC(=O)OC1COC2OCCC12)S(=O)(=O)c1ccc2onc(CSC(C)C)c2c1 (stereo not drawn) [Compound 209] | – | 210 | – | 50 | – | – | – | – | – | 3.5 | < 0.1 | 2.3 | < 0.3
4 | CCOC(=O)NCc1cc2cc(S(=O)(=O)N(CC(C)C)CC(O)C(Cc3ccccc3)NC(=O)OC3COC4OCCC34)ccc2o1 (stereo not drawn) [Compound 121] | 8 | > 400 | < 0.1 | 21 | 1.6 | < 0.3 | – | – | – | – | – | – | –
5 | CC(C)CN(C[C@@H](O)[C@H](Cc1ccccc1)NC(=O)OC1COC2OCCC12)S(=O)(=O)c1ccc2c(c1)C(=O)CCO2 (stereo partly drawn) | 3.5 | 625 | < 0.1 | 42 | 4.9 | 0.42 | – | – | – | – | – | – | –
6 | CC(C)CN(CC(O)C(Cc1ccccc1)NC(=O)OC1COC2OCCC12)S(=O)(=O)c1ccc2[nH]nc(NC3CCCCC3)c2c1 (stereo not drawn) [Compound 304] | 6.1 | 100 | < 0.1 | 12 | 0.93 | < 0.3 | – | – | – | – | – | – | –
7 | CCOC(=O)C(C)NCc1noc2ccc(S(=O)(=O)N(CC(C)C)CC(O)C(Cc3ccccc3)NC(=O)OC3COC4OCCC34)cc12 (stereo not drawn) [Compound 206] | – | 160 | – | 30 | – | – | – | – | – | 5 | < 0.1 | 0.33 | < 0.3
8 | CC(C)CN(CC(O)C(Cc1ccccc1)NC(=O)OC1COC2OCCC12)S(=O)(=O)c1ccc2onc(CNS(C)(=O)=O)c2c1 (stereo not drawn) [Compound 207] | – | 54 | – | 28 | – | – | – | – | – | 22 | < 0.1 | 0.34 | < 0.3
9 | CC(C)CN(CC(O)C(Cc1ccccc1)NC(=O)OC1COC2OCCC12)S(=O)(=O)c1ccc2onc(COC(=O)C(C)(C)C)c2c1 (stereo not drawn) [Compound 218] | – | 80 | – | 18 | – | – | – | – | – | 11 | < 0.1 | 2 | < 0.3
10 | CC(C)CN(CC(O)C(Cc1ccccc1)NC(=O)OC1COC2OCCC12)S(=O)(=O)c1ccc2occc2c1 (stereo not drawn) [Compound 101, {3-[(Benzofuran-5-sulfonyl)-isobutyl-amino]-1-benzyl-2-hydroxy-propyl}-carbamic acid hexahydro-furo[2,3-b]furan-3-yl ester] | 1.6 | 120 | < 0.1 | 16 | 0.5 | < 0.3 | – | – | – | – | – | – | –
11 | CCCC[S+]([O-])Cc1noc2ccc(S(=O)(=O)N(CC(C)C)CC(O)C(Cc3ccccc3)NC(=O)OC3COC4OCCC34)cc12 (stereo not drawn) [Compound 208] | – | 60 | – | 36 | – | – | – | – | – | 3.9 | < 0.1 | < 0.1 | < 0.3
12 | CC(C)CN(CC(O)C(Cc1ccccc1)NC(=O)OC1COC2OCCC12)S(=O)(=O)c1ccc2onc(CNCC(F)(F)C(F)(F)F)c2c1 (stereo not drawn) [Compound 228] | – | 26 | – | 9.5 | – | – | – | – | – | 4.5 | 0.12 | 0.2 | < 0.3
13 | CC(C)CN(CC(O)C(Cc1ccccc1)NC(=O)OC1COC2OCCC12)S(=O)(=O)c1ccc2onc(CN3CCOCC3)c2c1 (stereo not drawn) [Compound 239] | – | > 400 | – | 25 | – | – | – | – | – | 3 | < 0.1 | 3.7 | < 0.3
14 | CC(C)CN(CC(O)C(Cc1ccccc1)NC(=O)OC1COC2OCCC12)S(=O)(=O)c1ccc2onc(CNCC3CCCCC3)c2c1 (stereo not drawn) [Compound 238] | – | 55 | – | 35 | – | – | – | – | – | 7.5 | < 0.1 | < 0.1 | < 0.3
15 | CC(C)CN(CC(O)C(Cc1ccccc1)NC(=O)OC1COC2OCCC12)S(=O)(=O)c1ccc2oc(CN)cc2c1 (stereo not drawn) [Compound 105] | 7 | 220 | < 0.1 | 30 | 1.9 | < 0.3 | – | – | – | – | – | – | –
16 | CC(C)CN(CC(O)C(Cc1ccccc1)NC(=O)OC1COC2OCCC12)S(=O)(=O)c1ccc2[nH]nc(NCc3ccccc3)c2c1 (stereo not drawn) [Compound 306] | 5.5 | 95 | 0.1 | 35 | 1.1 | < 0.3 | – | – | – | – | – | – | –

Row | SMILES | IC50 (HIV-1 isolates, WT; Human immunodeficiency virus 1) [nM] | IC50 (HIV-1 isolates, Mutant 9; [1]) [nM] | Ki (wild type HIV-1 protease; WT) [nM] | IC50 (HIV-1 isolates, Mutant 8; [2]) [nM] | Ki (HIV-1 protease Mutant 9; Mutant 9) [nM] | Ki (HIV-1 protease Mutant 8; Mutant 8) [nM] | IC50 (HIV-1 isolates, WT; WT) [nM] | IC50 (HIV-1 isolates, Mutant 9; [3]) [nM] | IC50 (HIV-1 isolates, Mutant 8; [4]) [nM] | IC50 (HIV-1 isolates, WT; [5]) [nM] | Ki (wild type HIV-1 protease; wild type HIV-1 protease) [nM] | Ki (HIV-1 protease Mutant 9; HIV-1 protease Mutant 9) [nM] | Ki (HIV-1 protease Mutant 8; HIV-1 protease Mutant 8) [nM]
17 | CC(C)CN(C[C@@H](O)[C@H](Cc1ccccc1)NC(=O)OC1COC2OCCC12)S(=O)(=O)c1ccc2occ(CNC(=O)CNC(=O)OCc3ccccc3)c2c1 (stereo partly drawn) [Compound 116] | – | – | < 0.1 | – | 0.41 | < 0.3 | 15 | 58 | 50 | – | – | – | –
18 | CCC(CC)Nc1n[nH]c2ccc(S(=O)(=O)N(CC(C)C)CC(O)C(Cc3ccccc3)NC(=O)OC3COC4OCCC34)cc12 (stereo not drawn) [Compound 307] | 7.5 | 110 | < 0.1 | 24 | 0.55 | < 0.3 | – | – | – | – | – | – | –
19 | CC(C)CN(CC(O)C(Cc1ccccc1)NC(=O)OC1COC2OCCC12)S(=O)(=O)c1ccc2onc(CNCCNC(=O)OC(C)(C)C)c2c1 (stereo not drawn) [Compound 236] | – | 160 | – | 18 | – | – | – | – | – | 6 | < 0.1 | 0.34 | < 0.3
20 | CCCC(C)Nc1n[nH]c2ccc(S(=O)(=O)N(CC(C)C)CC(O)C(Cc3ccccc3)NC(=O)OC3COC4OCCC34)cc12 (stereo not drawn) [Compound 303] | 10 | 150 | < 0.1 | 18 | 0.73 | < 0.3 | – | – | – | – | – | – | –
21 | COCCNCc1noc2ccc(S(=O)(=O)N(CC(C)C)CC(O)C(Cc3ccccc3)NC(=O)OC3COC4OCCC34)cc12 (stereo not drawn) [Compound 219] | – | 40 | – | 9 | – | – | – | – | – | 4 | < 0.1 | 0.37 | < 0.3
22 | CCCCNCc1noc2ccc(S(=O)(=O)N(CC(C)C)CC(O)C(Cc3ccccc3)NC(=O)OC3COC4OCCC34)cc12 (stereo not drawn) [Compound 231] | – | 60 | – | 23 | – | – | – | – | – | 4.3 | < 0.1 | 0.29 | < 0.3
23 | CC(C)CN(C[C@@H](O)[C@H](Cc1ccccc1)NC(=O)OC1COC2OCCC12)S(=O)(=O)c1ccc2occ(CN3CCCCC3)c2c1 (stereo partly drawn) [Compound 109] | – | – | < 0.1 | – | 2.8 | < 0.3 | 2 | > 400 | 30 | – | – | – | –
24 | CC(=O)N(Cc1noc2ccc(S(=O)(=O)N(CC(C)C)CC(O)C(Cc3ccccc3)NC(=O)OC3COC4OCCC34)cc12)CC(F)(F)F (stereo not drawn) [Compound 247] | – | > 400 | – | 29 | – | – | – | – | – | 5.4 | < 0.1 | 1.1 | < 0.3
25 | CCCNc1n[nH]c2ccc(S(=O)(=O)N(CC(C)C)CC(O)C(Cc3ccccc3)NC(=O)OC3COC4OCCC34)cc12 (stereo not drawn) [Compound 305] | 16 | 180 | < 0.1 | 30 | 0.66 | < 0.3 | – | – | – | – | – | – | –
26 | CC(C)CN(CC(O)C(Cc1ccccc1)NC(=O)OC1COC2OCCC12)S(=O)(=O)c1ccc2onc(CNCCCN3CCCC3=O)c2c1 (stereo not drawn) [Compound 237] | – | 85 | – | 41 | – | – | – | – | – | 31 | < 0.1 | 0.27 | < 0.3
27 | CCOC(=O)NCc1noc2ccc(S(=O)(=O)N(CC(C)C)CC(O)C(Cc3ccccc3)NC(=O)OC3COC4OCCC34)cc12 (stereo not drawn) [Compound 217] | – | 20 | – | 30 | – | – | – | – | – | 2.3 | < 0.1 | < 0.1 | < 0.3
28 | CCSCCNCc1noc2ccc(S(=O)(=O)N(CC(C)C)CC(O)C(Cc3ccccc3)NC(=O)OC3COC4OCCC34)cc12 (stereo not drawn) [Compound 226] | – | 38 | – | 16 | – | – | – | – | – | 5.5 | < 0.1 | < 0.1 | < 0.3
29 | CC(C)CN(CC(O)C(Cc1ccccc1)NC(=O)OC1COC2OCCC12)S(=O)(=O)c1ccc2onc(CNC3CCCC3)c2c1 (stereo not drawn) [Compound 235] | – | 120 | – | 15 | – | – | – | – | – | 4.2 | < 0.1 | 0.43 | < 0.3
30 | CCCC[S+]([O-])Cc1coc2ccc(S(=O)(=O)N(CC(C)C)C[C@@H](O)[C@H](Cc3ccccc3)NC(=O)OC3COC4OCCC34)cc12 (stereo partly drawn) [Compound 111] | 8 | 49 | < 0.1 | 24 | 0.16 | < 0.3 | – | – | – | – | – | – | –
31 | CCCOC(=O)NCc1noc2ccc(S(=O)(=O)N(CC(C)C)CC(O)C(Cc3ccccc3)NC(=O)OC3COC4OCCC34)cc12 (stereo not drawn) [Compound 222] | – | 45 | – | 12 | – | – | – | – | – | 3 | < 0.1 | 0.19 | < 0.3

Reference: patent US20100056596A1, “RESISTANCE-REPELLENT RETROVIRAL PROTEASE INHIBITORS” (Sequoia Pharmaceuticals, priority 2004, published 2010)
